Where two headings read alike, the source gives them in different places.
Assays:
[1] = Cytotoxicity CCK-8 assay in MDCK cells; type: cell-based, canine; details: dog, MDCK cells, 12 h incubation, read-out: Cell viability
Protocol: (§1) In brief, the cells were seeded on 96-well plates at 1 × 10^5 cells/mL and cultured in 100 μL of culture medium at incubator for 24 h. […] After 12 h incubation, 10 μL of CCK-8 dye was added to each well, and cells were incubated for another 2 h. Cell viability (%) was calculated using the following Equation (1):
(§2) (1) Cell viability (%)=(ODsample−ODblank)/ (ODcontrol−ODblank) ×100%
(§3) ODsample refers to the absorbance of a well with treated cells and CCK-8. ODblank refers to the absorbance of a well with medium and CCK-8 but without cells. ODcontrol refers to the absorbance of a well with untreated cells and CCK-8. The absorbance at 450 nm was measured by a microplate reader (Biotek Instrument; Gene Co., Ltd., VT, USA), and the results are presented as mean ± SD from triplicate wells.

MDCK cells = assay: Cytotoxicity CCK-8 assay in MDCK cells; type: cell-based, canine; details: CCK-8
Protocol: as §1, §2, §3

Caco-2 cells = assay: Cytotoxicity CCK-8 assay in Caco-2 cells; type: cell-based, human; details: Caco-2, CCK-8
Protocol: as §1, §2, §3

[2] = Cytotoxicity CCK-8 assay in Caco-2 cells; type: cell-based, human; details: human, Caco-2 cells, 12 h incubation, read-out: Cell viability
Protocol: as §1, §2, §3

[3] = Metabolic stability in human liver microsomes; details: for residual percentage: human liver microsomes 0.5 mg protein/mL, 2 μM, after incubation; for half-life at 2 μM / microsomal CLint at 2 μM: human, liver microsomes
MRP2 [4] = assay: Western blot analysis of MRP2 protein expression in Caco-2 cells; type: cell-based, human
Protocol: The Caco-2 cells were seeded into 6-well plates at a density of 1 × 10^5 cells/mL and cultured for 24 h. […] Protein lysate was collected by centrifugation at 12,000 rpm at 4°C for 10 min, and the total protein content was determined using BCA protein assay kit. Proteins were then mixed with a quarter volume of loading buffer and heated at 100°C for 5 min. Approximately 20 μg of the total protein content was separated by SDS-PAGE through an 8% acrylamide gel and transferred to PVDF membranes. After washing with PBST, the membrane was blocked with 5% fat-free milk in PBST for 1 h at room temperature (RT) and then incubated with anti-MRP2 (1:500) and anti-GAPDH (1:5,000) overnight at 4°C. Afterwards, the membranes were rinsed with PBST and incubated with HRP-conjugated anti-rabbit (1:5,000) secondary antibody for 2 h at RT. After complete washing with PBST, the protein bands were visualized with ECL prime kit (GE Healthcare, NA, UK).

[5] = Urinary and fecal excretion in rats; type: in vivo, Sprague-Dawley rats; details: for Cumulative excretion of the analyte, SUM of urine and feces: within 72 h
Protocol: Access to water was maintained all the time. Samples including blank urine and feces before dosing, urine and feces from 0 to 24 h, 24 to 48 h, and 48 to 72 h after dosing were collected and stored at −80°C until analysis.
Urine samples were thawed and an aliquot of 100 μL was processed for detection as described in Section Drug Analysis. Feces were homogenized and then weighed, added 6-folds of acetonitrile, extracted by ultrasonic wave for 1 h and then centrifuged. An aliquot of 100 μL was also processed for detection as described in Section Drug Analysis.

[6] = tested on: MDCK-MRP2 cell monolayers; assay: Bidirectional transport in MDCK-MRP2 cell monolayers with MRP2 inhibitors; type: in vitro ADME, canine; details: MDCK-MRP2, 2 μM
Protocol: (§4) Caco-2, MDCK and MDCK-MRP2 cells were donated by Prof. Yan Xie and Yueming Ma from Shanghai University of Traditional Chinese Medicine. The cells were grown in culture dishes (Corning® Costar, Cambridge, MA, USA) using DMEM supplemented with 10% FBS, 1% NEAA and 1% penicillin-streptomycin solution. The cells were cultured in 5% CO2 and […] with 90% relative humidity at 37°C. The medium was replaced every other day during incubation. The cells were passaged every 3–4 days between 70 and 80% confluence at a 1:5 split ratio using 0.25% trypsin-EDTA. For the transport experiments, the cells from passages between 30 and 45 were seeded at 1 × 10^5 cells/cm^2 onto permeable polycarbonate inserts (0.45 μm pore size, seeding surface of 0.6 cm^2, Millipore, MA, USA) in 24-well plastic plates. The media in the culture plates were changed every other day for the first week after seeding and were replaced daily afterward. […] The cells were used for the transport experiments 21–28 (Caco-2) or 5–7 (MDCK and MDCK-MRP2) days after seeding, and only monolayers with a TEER-value above 420 Ω cm^2 were used during the studies.
(§5) The apical (AP) and basolateral (BL) sides are typical of polarized Caco-2, MDCK and MDCK-MRP2 epithelial cells. Before the experiments, the polarized cell monolayers were washed twice with warm HBSS solution and subsequently preincubated (37°C, 30 min). Afterward, HBSS solution on both sides of the cell monolayers was removed using a mini desktop vacuum pump. […] The final DMSO concentration in the HBSS or drug mixture was below 0.5%. The monolayers were incubated at 37°C, and 100 μL samples were taken at 30, 60, 90, and 120 min from the acceptor compartment and immediately replaced with the same volume of prewarmed fresh blank HBSS. TEER measurements for assessing the membrane integrity took place before and after the experiments.
(§6) The apparent permeability coefficients (Papp) and ER were calculated as Equations (2) and (3): […]
(§7) where dQ/dt is the steady-state flux, A is the membrane surface area, and C0 is the initial drug concentration in the donor compartment. PappBA is the Papp-value measured in BL to AP direction and PappAB is the Papp-value measured in AP to BL direction. It indicated the involvement of an active transport process when the ER-value is above 1.5 (Hubatsch et al., [2007]).

MRP2 [7] = assay: as above; type: in vitro ADME, canine; details: dog, MDCK-MRP2, 2 μM; for efflux ratio at 120 min, 2 μM: read-out: ER
Protocol: as §4, §5, §6, §7

[8] = after oral harmaline 40.0 mg/kg, 24 h
[9] = after oral harmaline 40.0 mg/kg, 48 h
[10] = after oral harmaline 40.0 mg/kg, 72 h
[11] = after oral harmaline 40.0 mg/kg
[12] = after oral harmine 40.0 mg/kg, 24 h
[13] = after oral harmine 40.0 mg/kg, 48 h
[14] = after oral harmine 40.0 mg/kg, 72 h
[15] = with MK571 0.05 mM (50 μM), + MK571 0.05 mM (MRP2)
[16] = with probenecid 0.2 mM (200 μM), + Probenecid 0.2 mM (MRP2)

Structure (SMILES) | concentration without toxicity or decreased cell viability (MDCK cells) | drug concentration producing notable toxicity (MDCK cells) | concentration without toxicity or decreased cell viability (Caco-2 cells) | drug concentration producing notable toxicity (Caco-2 cells) | residual percentage [3] | half-life at 2 μM [3] | microsomal CLint at 2 μM [3] | Cumulative excretion in feces (%) of the analyte [5, 8] | Cumulative excretion in urine (%) of the analyte [5, 8] | Cumulative excretion in feces (%) of the analyte [5, 9] | Cumulative excretion in urine (%) of the analyte [5, 9] | Cumulative excretion in feces (%) of the analyte [5, 10] | Cumulative excretion in urine (%) of the analyte [5, 10] | Cumulative excretion of the analyte, SUM of urine and feces [5, 11] | Modulatory effect ([6]; + MK571 0.05 mM (MRP2)) | Modulatory effect ([6]; + Probenecid 0.2 mM (MRP2)) | Papp A→B at 120 min, 2 μM (MRP2 [7]; [15]) | Papp B→A at 120 min, 2 μM (MRP2 [7]; [15]) | Papp A→B at 120 min, 2 μM (MRP2 [7]; [16]) | Papp B→A at 120 min, 2 μM (MRP2 [7]; [16]) | further results
COc1ccc2c(c1)[nH]c1c(C)nccc12 [Harmine] | up to 5 μM | > 25 µM | up to 5 μM | > 25 µM | 54.25% | 1.65 h | 14 µL/min/mg | 0.01 ± 0.01% | 0.03 ± 0.01% | 0.02 ± 0.01% | 0.04 ± 0.01% | 0.02 ± 0.01% | 0.05 ± 0.01% | 0.07 ± 0.01% | + | + | 20.8 ± 1.49 ×10⁻⁶ cm/s | 11.8 ± 1.25 ×10⁻⁶ cm/s | 10.1 ± 1.69 ×10⁻⁶ cm/s | 8.62 ± 1.05 ×10⁻⁶ cm/s | viability at 12 h ([1]; up to 5 μM): > 90%; viability at 12 h ([2]; Caco-2, up to 5 μM): > 90%; effect on the expression of MRP2 (MRP2 [4]; 48 h, 2 and 5 μM, compared with the control group): slightly up-regulate; Cumulative excretion in feces (%) of the analyte [5, 12]: 0.57 ± 0.37%; Cumulative excretion in urine (%) of the analyte [5, 12]: 0.02 ± 0.02%; Cumulative excretion in feces (%) of the analyte [5, 13]: 0.65 ± 0.36%; Cumulative excretion in urine (%) of the analyte [5, 13]: 0.02 ± 0.03%; Cumulative excretion in feces (%) of the analyte [5, 14]: 0.65 ± 0.36%; Cumulative excretion in urine (%) of the analyte [5, 14]: 0.03 ± 0.03%; Cumulative excretion of the analyte, SUM of urine and feces ([5]; after oral harmine 40.0 mg/kg): 0.69 ± 0.36%; Papp A→B at 120 min, 2 μM (MRP2 [7]; Control (no inhibitor)): 3.55 ± 0.4 ×10⁻⁶ cm/s; Papp B→A at 120 min, 2 μM (MRP2 [7]; Control (no inhibitor)): 8.18 ± 0.98 ×10⁻⁶ cm/s
COc1ccc2c3c([nH]c2c1)C(C)=NCC3 [Harmaline] | up to 25 μM | higher than 100 μM | up to 25 μM | higher than 100 μM | 64.16% | 2.46 h | 9.4 µL/min/mg | 0.14 ± 0.10% | 4.00 ± 4.36% | 0.19 ± 0.12% | 4.71 ± 4.20% | 0.19 ± 0.12% | 4.85 ± 4.17% | 5.05 ± 4.12% | − | − | 31.8 ± 1.37 ×10⁻⁶ cm/s | 40.9 ± 5.48 ×10⁻⁶ cm/s | 32.9 ± 2.23 ×10⁻⁶ cm/s | 41.9 ± 5.58 ×10⁻⁶ cm/s | viability at 12 h ([1]; up to 25 μM): > 90%; viability at 12 h ([2]; Caco-2, up to 25 μM): > 90%; effect on the expression of MRP2 (MRP2 [4]; 48 h, 1, 2, and 5 μM): no effect; efflux ratio at 120 min, 2 μM (MRP2 [7]; [15]): 1.34; efflux ratio at 120 min, 2 μM (MRP2 [7]; [16]): 1.28; Papp A→B at 120 min, 2 μM (MRP2 [7]; Control (no inhibitor)): 24.3 ± 2.72 ×10⁻⁶ cm/s; Papp B→A at 120 min, 2 μM (MRP2 [7]; Control (no inhibitor)): 32.4 ± 3.81 ×10⁻⁶ cm/s; efflux ratio at 120 min, 2 μM (MRP2 [7]; Control (no inhibitor)): 1.33

From publication PMC5566973 (Frontiers in Pharmacology, 2017)
